Tests used:
FVB-luc mice [1] = assay: In vivo antioxidant experiments in FVB-luc mice; set-up: species or system mouse; details: NAC 0.2 mg i.p. then PCL-1 i.p., total photon flux over one hour
Text: (§1) A Xenogen IVIS Spectrum instrument (Caliper Life Sciences, Hopkinton, Mass.) was used for bioluminescent imaging in all in vivo experiments. Phosphate Buffered Saline (PBS) was purchased from Thermo Fisher Scientific (Waltham, Mass.). Isoflurane was purchased from Phoenix Pharmaceuticals, Inc. (St. Joseph, Mo.), and sterile DMSO was purchased from Sigma-Aldrich (St. Louis, Mo.). Medical grade oxygen was purchased from Praxair (Danbury, Conn.).
(§2) Animals. FVB-luc (FVB-Tg(CAG-luc,-GFP)L2G85Chco/J) mice were obtained from UC Davis, and SHO mice were obtained from Charles River Labs. Mice were single or group-housed on a 12:12 light-dark cycle at […] with free access to food and water. All studies were approved and performed according to the guidelines of the Animal Care and Use Committee of the University of California, Berkeley.
Adult FVB-luc mice were anesthetized with isoflurane and injected with N-acetylcysteine (0.2 mg, 100 μL PBS, pH 7-8), followed immediately by an i.p. injection of PCL-1 (5 μmol, 50 μL 1:1 DMSO:PBS). Control mice were injected with 100 μL PBS and PCL-1.
(§3) PCL-1 was applied to molecular imaging of H2O2 in living animals. Initial studies utilized FVB-luc mice that ubiquitously express firefly luciferase along with exogenous peroxide addition. […]

LNCaP-luc tumors = assay: LNCaP-luc tumor xenograft model in SHO mice; type: in vivo, mouse
Procedure: Animals. […] Mice were single or group-housed on a 12:12 light-dark cycle at 71° C. with free access to food and water.
Tumor xenografts were created via i.p. injection of 3×10̂6 LNCaP-luc cells (100 μL, 1:1 PBS:Matrigel) in adult SHO mice. Tumor size was monitored by injecting 0.5-5 μmol D-lucifeirn (potassium salt, Gold Biotech., St. Louis, Mo.) in PBS. At least two weeks post-inoculation, tumors were injected with PCL-1, valeryl luciferin, testosterone propionate and N-acetylcysteine in various combinations to obtain the experimental data. On day one of the experiments, mice were injected with either PCL-1 (0.5 μmol) or valeryl luciferin (0.44 μmol) and imaged for 45 minutes using an IVIS spectrum. To determine the effect of testosterone on the tumors, the mice were injected with testosterone propionate (3 mg in 50 μL sesame oil) on day 2, followed 1.5 hours later by an injection of PCL-1 (0.5 μmol) or valeryl luciferin (0.44 μmol). Controls for the testosterone experiment were completed by injecting sesame oil (50 μL) on day 2, followed by the probe (0.5 μmol) or valeryl luciferin (0.44 μmol) 1.5 hours later. Additional experiments with N-acetylcysteine were completed by injecting the mice with testosterone propionate (3 mg in 50 μL sesame oil) on day 2, followed 1.5 hours later by injections of N-acetylcysteine (0.2 mg in 100 μL PBS) and PCL-1 (0.5 μmol). Day 2 injections were followed by 45 minutes of imaging.
To study the stimulatory effects of testosterone and H2O2 production in prostate cancer in living animals, an intraperitoneal (i.p.) LNCaP-luc tumor xenograft model was developed in immunodeficient severe combined immunodeficiency hairless outbred (SHO) mice. To determine the baseline levels of H2O2 generation in the tumors as well as alterations in H2O2 fluxes over 24 hours, mice were injected with PCL-1 on Day 1 and with sesame oil, a vehicle used for all experiments, and PCL-1 after 24 hours on Day 2. […] The effects of testosterone (in the form of testosterone propionate) on H2O2 production were tested within the prostate cancer tumors. For these experiments, mice were injected with PCL-1 on Day 1 and the baseline signal was measured. On Day 2, the mice were injected either with testosterone propionate and then PCL-1, or empty vehicle and PCL-1.
These experiments were performed by injecting mice on Day 2 with testosterone propionate, followed by serial application of NAC and PCL-1.

[2] = In vitro ROS selectivity test with purified firefly luciferase: H2O2; type: biochemical; details: PCL-1 5 μM, H2O2 100 μM, over an hour, then firefly luciferase; light integrated over 45 minutes
Procedure: (§4) Millipore water was used to prepare all aqueous solutions. Measurements for in vitro tests were performed in 50 mM Tris buffer, pH 7.4, with 10 mM MgCl2, 0.1 mM ZnCl2, and 2 mM ATP at 37° C. Bioluminescent measurements for in vitro tests were recorded using a Molecular Devices SpectraMax M2 plate reader (Sunnyvale, Calif.). Samples for bioluminescent measurements were placed in white, opaque 96-well plates, which were purchased from Corning Inc. (Corning, N.Y.). ATP was purchased from MP Biomedicals (Solon, Ohio), and luciferase was purchased from Promega (Madison, Wis.).
(§5) Various reactive oxygen species (ROS, 100 μM) were administered to PCL-1 (5 μM) in the Tris buffer as follows. Hydrogen peroxide (H2O2), tert-butyl hydroperoxide (TBHP), and hypochlorite (OCl^−) were delivered from 30%, 70%, and 6.15% aqueous solutions, respectively. […]
(§6) Initial experiments tested the ability of PCL-1 to detect H2O2 in a selective and concentration-dependent manner. […] PCL-1 was incubated with various ROS for 5-60 minutes followed by addition of firefly luciferase, and then light production was measured over 45 minutes to determine whether luciferin was produced during the ROS incubation period. The total normalized photon flux was calculated by dividing each total photon flux by the zero timepoint total photon flux for each run to allow a direct comparison between various ROS. […]

LNCaP-luc cells [3] = assay: Bioluminescence of LNCaP-luc cells with PCL-1 and exogenous H2O2; type: cell-based, human; details: PCL-1 50 μM
Procedure: A Xenogen IVIS Spectrum instrument (Caliper Life Sciences, Hopkinton, Mass.) was used for bioluminescent imaging in all ex vivo experiments. LNCaP-luc cells (kindly provided by Chris Contag, Stanford University) were cultured in Dulbecco's Modified Eagle Medium (DMEM) containing 10% Fetal Bovine Serum (FBS). Cells were split twice per week. Prior to assaying, cells were passed and plated (4×10^4 cells/well) in black 96-well plates with clear bottoms (Becton Dickinson and Company, Franklin Lakes, N.J.). Two days after being plated, once the cells were ca. 95% confluent, the medium was removed and PCL-1 (2.5% final DMSO concentration) and H2O2 (2.5-500 μM final concentrations) in DMEM (−FBS) were added. The plate was immediately imaged for 2 hours. For stimulation experiments, the cells (ca. 95 confluent) were incubated with paraquat (0 or 500 μM, 100 μL DMEM+10% FBS) for 24 hours prior to the addition of PCL-1 (50 μM) with or without catalase (1×10̂4 U/L).
With data showing that PCL-1 is a selective and sensitive bioluminescent reporter for H2O2 in aqueous solution, this system was applied to imaging changes in H2O2 levels in cell culture. […] To achieve this goal, PCL-1 and H2O2 were added to LNCaP-luc cells stably transfected with the firefly luciferase gene. In the absence of H2O2, the bioluminescent signal from the cells was negligible. In contrast, addition of 2.5 to 500 μM H2O2 triggers a linear increase, up to 250 μM, in the total observed photon flux (FIG. 3). The 2.5 μM detection limit for H2O2 is well within estimated concentration ranges of endogenously produced H2O2 fluxes.
Total photon flux, integrated over 2 h, from LNCaP-luc cells with PCL-1 (50 μM) and H2O2 (2.5-500 μM) in DMEM. All values show statistically significant differences (p<0.001) except between 250 and 500 μM H2O2. (b) Total photon flux, integrated over 2 h, from LNCaP-luc cells incubated with paraquat (0 or 500 μM) for 24 h, followed by addition of PCL-1 (50 μM)±catalase (1×10̂4 U/L). […]

[4] = In vitro ROS selectivity test with purified firefly luciferase: other ROS; type: biochemical; details: PCL-1 5 μM, ROS 100 μM, 5-60 minutes, then firefly luciferase
Procedure: as §4, §5, §6

FVB-luc mice [5] = assay: In vivo exogenous H2O2 experiments in FVB-luc mice; set-up: species or system mouse; details: PCL-1 i.p. 0.5 μmol
Text: as §1, §2
Adult FVB-luc mice were anesthetized with isoflurane and injected (i.p.) with PCL-1 (0.5 μmol, 50 μL 1:1 DMSO:PBS), followed immediately by an i.p. injection of H2O2 (0.0375, 0.15, 0.6, and 2.4 μmol in 100 μL PBS). Control mice were injected with PCL-1 and 100 μL PBS.
as §3

LNCaP-luc cells [6] = assay: Paraquat stimulation of endogenous H2O2 in LNCaP-luc cells, with or without catalase; type: cell-based, human
Procedure: A Xenogen IVIS Spectrum instrument (Caliper Life Sciences, Hopkinton, Mass.) was used for bioluminescent imaging in all ex vivo experiments. […] Cells were split twice per week. Prior to assaying, cells were passed and plated (4×10^4 cells/well) in black 96-well plates with clear bottoms (Becton Dickinson and Company, Franklin Lakes, N.J.). Two days after being plated, once the cells were ca. 95% confluent, the medium was removed and PCL-1 (2.5% final DMSO concentration) and H2O2 (2.5-500 μM final concentrations) in DMEM (−FBS) were added. The plate was immediately imaged for 2 hours. For stimulation experiments, the cells (ca. 95 confluent) were incubated with paraquat (0 or 500 μM, 100 μL DMEM+10% FBS) for 24 hours prior to the addition of PCL-1 (50 μM) with or without catalase (1×10̂4 U/L).
To determine whether PCL-1 could detect endogenously produced H2O2 in living cells, LNCaP-luc cells were incubated with 500 μM paraquat for 24 hours, as previous work establishes that paraquat triggers elevations in intracellular H2O2 through disruption of the mitochondrial electron transport chain. Following paraquat stimulation, the LNCaP-luc cells were loaded with PCL-1 and the subsequent bioluminescent signal was detected.
Because luciferin is a cell-permeable small molecule, two possible modes of action for PCL-1 are (i) reaction of this probe with H2O2 in the extracellular medium followed by cellular uptake of the free luciferin product, or (ii) reaction of PCL-1 with intracellular H2O2 to generate luciferin within cells. To probe whether PCL-1 was reacting with H2O2 in the intra- or extracellular space, catalase was added as a cell-impermeable scavenger for extracellular H2O2 with paraquat stimulation.

CC(=O)N[C@@H](CS)C(=O)O [NAC, N-acetylcysteine]
bioluminescent signal of NAC-treated animals compared to vehicle control animals (FVB-luc mice [1]): significantly reduced bioluminescent signal
bioluminescent signal in testosterone-stimulated animals after NAC treatment (LNCaP-luc tumors; SHO mice with LNCaP-luc tumors, testosterone propionate 3 mg, then NAC 0.2 mg and PCL-1 0.5 μmol): reduction in bioluminescent signal in testosterone-stimulated animals back to baseline levels

O=C(O)[C@H]1CSC(c2nc3ccc(OCc4ccc(B(O)O)cc4)cc3s2)=N1 [PCL-1, (S)-2-(6-(4-Boronobenzyloxy)benzo[d]thiazol-2-yl)-4,5-dihydrothiazole-4-carboxylic acid]
increase in bioluminescent signal (total normalized photon flux) on addition of H2O2 [2]: approximately seven-fold
change in basal bioluminescent signal from Day 1 to Day 2 (LNCaP-luc tumors; SHO mice with LNCaP-luc tumors, PCL-1 0.5 μmol Day 1, sesame oil and PCL-1 Day 2): no change in basal bioluminescent signal
detection limit for H2O2 (LNCaP-luc cells [3]): 2.5 µM
H2O2 concentration up to which total observed photon flux increases linearly (LNCaP-luc cells [3]; H2O2 2.5 to 500 μM, integrated over 2 h): up to 250 μM
bioluminescent signal from the cells in the absence of H2O2 (LNCaP-luc cells [3]; no H2O2): negligible
increase in bioluminescent signal on reaction with the other ROS [4]: little to no increase in signal
bioluminescence of mice treated only with PCL-1, no added peroxide (FVB-luc mice [5]): modest but measurable bioluminescence
integrated total photon flux as a function of the H2O2 concentration (FVB-luc mice [5]; then H2O2 i.p., integrated over one hour): dose-dependent increase in signal

O=C(O)[C@H]1CSC(c2nc3ccc(O)cc3s2)=N1 [luciferin]
time after injection at which the signal peak is reached (LNCaP-luc tumors; LNCaP-luc cells, peak before first imaging timepoint): < 1 min

C[n+]1ccc(-c2cc[n+](C)cc2)cc1 [paraquat, reference compound]
PCL-1 derived luminescence compared to unstimulated control cells (LNCaP-luc cells [6]; 500 μM paraquat for 24 hours, then PCL-1 50 μM): patently higher

CCC(=O)O[C@H]1CC[C@H]2[C@@H]3CCC4=CC(=O)CC[C@]4(C)[C@H]3CC[C@]12C [testosterone propionate]
increase in total photon flux compared to vehicle control mice (LNCaP-luc tumors; SHO mice with LNCaP-luc tumors, testosterone propionate 3 mg in sesame oil, PCL-1 0.5 μmol 1.5 h later): approximately 41%

catalase
bioluminescence signal with catalase plus paraquat compared to paraquat alone (LNCaP-luc cells [6]; 500 μM paraquat 24 h, PCL-1 50 μM, catalase 1×10^4 U/L): decrease in bioluminescence signal
PCL-1 bioluminescence of catalase-treated cells compared to untreated specimens (LNCaP-luc cells [6]; no paraquat, PCL-1 50 μM, catalase 1×10^4 U/L): reduces the level of PCL-1 bioluminescence

— US20130315829A1, “Compounds and Methods for Detecting Reactive Oxygen Species” (The Regents of the University of California, priority 2010, published 2013)
